According to patent US7618990B2, “Oxazolidone derivatives as PR modulators” (Wyeth, priority 2006, dated 2009):

Assays:
[1] = system: alkaline phosphatase activity in T47D cells; assay: Effects of progestins and antiprogestins on alkaline phosphatase activity in T47D cells (antagonist mode); assay type: cell-based; settings: Homo sapiens, in the presence of 1 nM progesterone, read-out: T47D Alkaline Phosphatase Activity IC50 (nM) or % inhibition; for IC50: 24 h; for inhibition at 3 µM: % inhibition at 3000 nM
Protocol: (1) Effects of Progestins and Antiprogestins on Alkaline Phosphatase Activity in T47D Cells
PURPOSE: To identify progestins or antiprogestins by determining a compound's effect on alkaline phosphatase activity in T47D cells.
Culture Medium: • DMEM:F12 (1:1) (GIBCO, BRL) supplemented with 5% (v/v) charcoal stripped fetal bovine serum (not heat-inactivated), 100 U/mL penicillin, 100 μg/mL streptomycin, and 2 mM the GlutaMax™ reagent (GIBCO, BRL).
Alkaline Phosphatase Assay Buffer: • I. 0.1M Tris-HCl, pH 9.8, containing 0.2% the Triton® X-100 reagent • II. 0.1M Tris-HCl, pH 9.8, containing 4 mM p-nitrophenyl phosphate (Sigma). B. Cell Culture and Treatment:
Frozen T47D cells were thawed in a 37° C. water bath and diluted to 280,000 cells/mL in culture medium. To each well in a 96-well plate (Falcon, Becton Dickinson Labware), 180 μL of diluted cell suspension was added.
Twenty μL of reference or test compounds diluted in the culture medium was then added to each well. When testing for progestin antagonist activity, reference antiprogestins or test compounds were added in the presence of 1 nM progesterone. The cells were incubated at 37° C. in a 5% CO2/humidified atmosphere for 24 h.
NOTE: For high throughput screening, one concentration of each compound was tested at 0.3 μg/mL. Based on an average molecular weight of 300 g/mol for the compounds in the library, the concentration was approximately 1 μM. Subsequently, active compounds were tested in dose response assays to determine EC50 and IC50. C. Alkaline Phosphatase Enzyme Assay:
At the end of treatment, the medium was removed from the plate. Fifty μL of assay buffer I was added to each well. The plates were shaken in a titer plate shaker for 15 min. Then 150 μL of assay buffer II was added to each well. Optical density measurements were taken at 5 min intervals for 30 min at a test wavelength of 405 nm.
For reference and test compounds, a dose response curve was generated for dose (X-axis) vs. the rate of enzyme reaction (slope) (Y-axis). Square root-transformed data was used for analysis of variance and nonlinear dose response curve fitting for both agonist and antagonist modes. Huber weighting was used to down-weight the effects of outliers. EC50 or IC50 values were calculated from the retransformed values. JMP software (SAS Institute, Inc.) was used for both one-way analysis of variance and non-linear dose response analysis in both single dose and dose response studies.
Progesterone and trimegestone were reference progestins and RU486 was the reference antiprogestin. All reference compounds were run in full dose response curves and the EC50 and IC50 values were calculated.

IC50 [1]	melting point	SMILES	inhibition at 3 µM [1]	inhibition at 0.03 µM ([1]; % inhibition at 30 nM)
1370 nM	169 to 171 °C	CC1(C)COC(=O)N(c2nc(-c3ccc(Br)cc3)cs2)C1 [Example 39, 3-[4-(4-Bromophenyl)-1,3-thiazol-2-yl]-5,5-dimethyl-1,3-oxazinan-2-one]	–	–
1.8 nM	166 to 167 °C	CC1OC(=O)N(c2nc(-c3ccc(C#N)cc3)cs2)C1(C)C (stereo not shown) [Example 62, 4-[2-(4,4,5-Trimethyl-2-oxo-1,3-oxazolidin-3-yl)-1,3-thiazol-4-yl]benzonitrile]	–	–
23.3 nM	157 to 159 °C	CC[C@H]1COC(=O)N1c1nc(-c2ccc(C#N)cc2)c(F)s1 [Example 12, 4-{2-[(4S)-4-Ethyl-2-oxo-1,3-oxazolidin-3-yl]-5-fluoro-1,3-thiazol-4-yl}benzonitrile]	–	–
191 nM	174 to 176 °C	N#Cc1ccc(-c2csc(N3C(=O)OC[C@H]3Cc3ccccc3)n2)cc1 [Example 44, 4-{2-[(4R)-4-Benzyl-2-oxo-1,3-oxazolidin-3-yl]-1,3-thiazol-4-yl}benzonitrile]	–	–
22.5 nM	131 to 133 °C	CCC[C@@H]1COC(=O)N1c1nc(-c2ccc(C#N)cc2)cs1 [Example 21, 4-{2-[(4R)-2-oxo-4-propyl-1,3-oxazolidin-3-yl]-1,3-thiazol-4-yl}benzonitrile]	–	–
68.8 nM	191 to 193 °C	CC1CN(c2nc(-c3ccc(Br)cc3)cs2)C(=O)O1 (stereo not shown) [Example 31, 3-[4-(4-Bromophenyl)-1,3-thiazol-2-yl]-5-methyl-1,3-oxazolidin-2-one]	–	–
194 nM	242 to 244 °C	N#Cc1ccc(-c2csc(N3C(=O)OC[C@@H]3c3ccccc3)n2)cc1 [Example 46, 4-{2-[(4S)-2-Oxo-4-phenyl-1,3-oxazolidin-3-yl]-1,3-thiazol-4-yl}benzonitrile]	–	–
292 nM	201 to 202 °C	O=C1OCC2(CC2)N1c1nc(-c2ccc(Br)cc2)cs1 [Example 24, 4-[4-(4-Bromophenyl)-1,3-thiazol-2-yl]-6-oxa-4-azaspiro[2.4]heptane-5-one]	–	–
50.4 nM	–	CC1(C)COC(=O)N1c1nc(-c2ccc(F)c(Cl)c2)cs1 [Example 117, 3-[4-(3-Chloro-4-fluorophenyl)-1,3-thiazol-2-yl]-4,4-dimethyl-1,3-oxazolidin-2-one]	–	–
328 nM	–	CC1(C)COC(=O)N1c1nc(-c2cccc(C(F)(F)F)c2)cs1 [Example 96, 4,4-Dimethyl-3-{4-[3-(trifluoromethyl)phenyl]-1,3-thiazol-2-yl}-1,3-oxazolidin-2-one]	–	–
262 nM	–	CC1(C)COC(=O)N1c1nc(-c2ccc(CC#N)cc2)cs1 [Example 103, {4-[2-(4,4-Dimethyl-2-oxo-1,3-oxazolidin-3-yl)-1,3-thiazol-4-yl]phenyl}acetonitrile]	–	–
83.7 nM	–	CC(=O)c1cccc(-c2csc(N3C(=O)OCC3(C)C)n2)c1 [Example 107, 3-[4-(3-Acetylphenyl)-1,3-thiazol-2-yl]-4,4-dimethyl-1,3-oxazolidin-2-one]	–	–
48 nM	–	CC1(C)COC(=O)N1c1nc(-c2ccc(Cl)c(Cl)c2)cs1 [Example 119, 3-[4-(3,4-Dichlorophenyl)-1,3-thiazol-2-yl]-4,4-dimethyl-1,3-oxazolidin-2-one]	–	–
247 nM	–	CC1(C)COC(=O)N1c1nc(-c2ccccc2)cs1 [Example 120, 4,4-Dimethyl-3-(4-phenyl-1,3-thiazol-2-yl)-1,3-oxazolidin-2-one]	–	–
146 nM	–	CC1(C)COC(=O)N1c1nc(-c2ccc(C#N)cc2)ns1 [Example 94, 4-[5-(4,4-dimethyl-2-oxo-1,3-oxazolidin-3-yl)-1,2,4-thiadiazol-3-yl]benzonitrile]	–	–
461 nM	–	CC1(C)COC(=O)N1c1nc(-c2cc(Cl)cc(Cl)c2)cs1 [Example 116, 3-[4-(3,5-Dichlorophenyl)-1,3-thiazol-2-yl]-4,4-dimethyl-1,3-oxazolidin-2-one]	–	–
72.2 nM	–	CC1(C)COC(=O)N1c1nc(-c2ccc(F)cc2)cs1 [Example 115, 3-[4-(4-Fluorophenyl)-1,3-thiazol-2-yl]-4,4-dimethyl-1,3-oxazolidin-2-one]	–	–
43.5 nM	–	CC1(C)COC(=O)N1c1nc(-c2ccc(C#N)cc2)c(Cl)s1 [Example 90, 4-[5-Chloro-2-(4,4-dimethyl-2-oxo-1,3-oxazolidin-3-yl)-1,3-thiazol-4-yl]benzonitrile]	–	–

Second part, the molecule before the results:

SMILES	IC50 [1]	melting point	inhibition at 3 µM [1]	inhibition at 0.03 µM ([1]; % inhibition at 30 nM)
CC[C@H]1COC(=O)N1c1nc(-c2ccc(C#N)cc2)c(C#N)s1 [Example 15, 4-(4-Cyanophenyl)-2-[(4S)-4-ethyl-2-oxo-1,3-oxazolidin-3-yl]-1,3-thiazole-5-carbonitrile]	144 nM	201 to 203 °C	–	–
CC[C@H]1COC(=O)N1c1nc(-c2ccc(Br)cc2)c(Cl)s1 [Example 13, (4S)-3-[4-(4-Bromophenyl)-5-chloro-1,3-thiazol-2-yl]-4-ethyl-1,3-oxazolidin-2-one]	124 nM	137 to 139 °C	–	–
C[C@@H]1COC(=O)N1c1nc(-c2cccc(C#N)c2)cs1 [Example 17, 3-{2-[(4R)-4-Methyl-2-oxo-1,3-oxazolidin-3-yl]-1,3-thiazol-4-yl}benzonitrile]	–	187 to 189 °C	84%	–
N#Cc1ccc(-c2csc(N3C(=O)OC[C@@H]3CC(F)(F)F)n2)cc1 [Example 68, 4-{2-[(4S)-2-Oxo-4-(2,2,2-trifluoroethyl)-1,3-oxazolidin-3-yl]-1,3-thiazol-4-yl}benzonitrile]	29.1 nM	235 to 238 °C	–	–
N#Cc1ccc(-c2csc(N3C(=O)OC[C@H]3CC(F)(F)F)n2)cc1 [Example 69, 4-{2-[(4R)-2-Oxo-4-(2,2,2-trifluoroethyl)-1,3-oxazolidin-3-yl]-1,3-thiazol-4-yl}benzonitrile]	63.8 nM	235 to 238 °C	–	–
CC(=O)c1ccc(-c2csc(N3C(=O)OCC3(C)C)n2)cc1 [Example 106, 3-[4-(4-Acetylphenyl)-1,3-thiazol-2-yl]-4,4-dimethyl-1,3-oxazolidin-2-one]	498 nM	–	–	–
CC1(C)COC(=O)N1c1nc(-c2ccc(-c3ccccc3)cc2)cs1 [Example 128, 3-(4-Biphenyl-4-yl-1,3-thiazol-2-yl)-4,4-dimethyl-1,3-oxazolidin-2-one]	–	–	47%	–
CC1(C)CN(Cc2ccccc2)C(=O)N1c1nc(-c2ccc(C#N)cc2)cs1 [Example 84, 4-[2-(3-Benzyl-5,5-dimethyl-2-oxoimidazolidin-1-yl)-1,3-thiazol-4-yl]benzonitrile]	77.9 nM	–	–	–
COc1cccc(-c2csc(N3C(=O)OCC3(C)C)n2)c1 [Example 99, 3-[4-(3-Methoxyphenyl)-1,3-thiazol-2-yl]-4,4-dimethyl-1,3-oxazolidin-2-one]	64.6 nM	–	–	–
COC(=O)c1ccc(-c2nc(N3C(=O)OCC3(C)C)sc2Cl)cc1 [Example 130, Methyl 4-[5-chloro-2-(4,4-dimethyl-2-oxo-1,3-oxazolidin-3-yl)-1,3-thiazol-4-yl]benzoate]	181 nM	–	–	–
CC1(C)COC(=O)N1c1nc(-c2ccc(C#N)cc2)co1 [Example 92, 4-[2-(4,4-dimethyl-2-oxo-1,3-oxazolidin-3-yl)-1,3-oxazol-4-yl]benzonitrile]	–	–	76%	–
CC1(C)COC(=O)N1c1nc(-c2ccc(Cl)cc2Cl)cs1 [Example 118, 3-[4-(2,4-Dichlorophenyl)-1,3-thiazol-2-yl]-4,4-dimethyl-1,3-oxazolidin-2-one]	–	–	–	60%
